According to article PMC9960633, “Novel Silver Complexes Based on Phosphanes and Ester Derivatives of Bis(pyrazol-1-yl)acetate Ligands Targeting TrxR: New Promising Chemotherapeutic Tools Relevant to SCLC Management” (International Journal of Molecular Sciences, 2023):

Key:
[1] = test system: HCT-15; test: MTT cytotoxicity, 2D culture, colon carcinoma; type: cell-based, human; details: HCT-15, 72 h, MTT test
Experimental: (§1) The Ag(I) complexes 3–5 and the corresponding uncoordinated ligands 1 and 2 were evaluated for their cytotoxic activity against various human cancer cell lines representative of different solid tumors. In particular, the in-house cancer cell panel contained examples of human colon (HCT-15), pancreatic (PSN-1), cervical (A431), breast (MDA-MB-231) and ovarian (2008) carcinoma as well as of SCLC (U1285). For comparison purposes, the cytotoxicity of the reference metal-based chemotherapeutic drug cisplatin was assessed under the same experimental conditions.
(§2) Ag(I) complexes and the corresponding uncoordinated ligands were dissolved in DMSO just before the experiment, and a calculated amount of drug solution was added to the cell growth medium to a final solvent concentration of 0.5%, which had no detectable effects on cell viability. Cisplatin was dissolved in 0.9% sodium chloride solution. MTT (3-(4,5-dimethylthiazol-2-yl)-2,5-diphenyltetrazolium bromide) and cisplatin were obtained from Sigma Chemical Co, St. Louis, MO, USA.
(§3) Human SCLC (U1285), breast (MDA-MB-231), colon (HCT-15), and pancreatic (PSN-1) carcinoma cell lines were obtained by American Type Culture Collection (ATCC, Rockville, MD, USA). A431 are human cervical carcinoma cells kindly provided by Professor F. Zunino (Division of Experimental Oncology B, Istituto Nazionale dei Tumori, Milan, Italy). The 2008 cells and the cisplatin-resistant variant, C13* cells, are human ovarian adenocarcinoma cell lines that were kindly provided by Professor G. Marverti (Department of Biomedical Science of Modena University, Modena, Italy). Cell lines were maintained in the logarithmic phase at 37 °C in a 5% carbon dioxide atmosphere using the following culture media containing 10% fetal calf serum (EuroClone, Milan, Italy), antibiotics (50 units/mL penicillin and 50 μg/mL streptomycin) and 2 mM l-glutamine: (i) RPMI-1640 medium (EuroClone, Milan, Italy) for HCT-15, A431, PSN-1, U1285, 2008 and C13* cells; (ii) DMEM (EuroClone, Milan, Italy) for MDA-MB-231 cells.
(§4) The growth inhibitory effect toward tumor cells was evaluated by means of MTT assay. Briefly, 3–8 × 10^3 cells/well, dependent upon the growth characteristics of the cell line, were seeded in 96-well microplates in growth medium (100 μL). After 24 h, the medium was removed and replaced with a fresh one containing the compound to be studied at the appropriate concentration. Triplicate cultures were established for each treatment. After 72 h, each well was treated with 10 μL of a 5 mg/mL MTT saline solution, and following 5 h of incubation, 100 μL of a sodium dodecyl sulfate (SDS) solution in HCl 0.01 M was added. After overnight incubation, cell growth inhibition was detected by measuring the absorbance of each well at 570 nm using a Bio-Rad 680 microplate reader. Mean absorbance for each drug dose was expressed as a percentage of the control untreated well absorbance and plotted vs. drug concentration. IC50 values, the drug concentrations that reduce the mean absorbance at 570 nm to 50% of those in the untreated control wells, were calculated by the four-parameter logistic (4-PL) model. Evaluation was based on means from at least four independent experiments.

[2] = test system: C13* cells; test: MTT cytotoxicity, cisplatin-resistant ovarian adenocarcinoma; type: cell-based, human; details: 72 h, MTT test
From the text: The antiproliferative activity of the Ag(I) complexes 3–5 was also investigated in an additional cell line selected for its resistance to cisplatin, the human ovarian adenocarcinoma C13* cells. These cells were suitably selected after a cisplatin chronic treatment and are characterized by several mechanisms accounting for their resistance to cisplatin; these include (i) a reduced intracellular drug accumulation, (ii) high cellular levels of glutathione and metallothioneins, (iii) the enhanced repair of platinum-DNA adducts, and (iv) an overexpression of the Trx system.
Cytotoxicity was assessed after 72 h of drug treatment by MTT test, and the IC50 and RF values (RF = resistance factor, defined as the ratio of the IC50 of resistant cells over the IC50 of sensitive ones) are reported in Table 1.
as §3, §4

[3] = test system: U1285; test: MTT cytotoxicity, 2D culture, SCLC; type: cell-based, human; details: U1285, 72 h, MTT test
Experimental: as §1, §2, §3, §4

[4] = test system: A431; test: MTT cytotoxicity, 2D culture, cervical carcinoma; type: cell-based, human; details: A431, 72 h, MTT test
Experimental: as §1, §2, §3, §4

[5] = test system: HEK293 cells; test: MTT cytotoxicity, non-cancerous cells; type: cell-based; details: Homo sapiens, 72 h, MTT test
Experimental: One of the main drawbacks of chemotherapeutic drugs is the possible toxic effect toward non-cancerous cells, and we measured the cytotoxicity of Ag(I) complexes against non-cancerous HEK293 cells (see Table 1). For all Ag(I) complexes, calculated IC50 values were higher than those obtained on average against tumor cells, thus indicating for this class of metal complexes a slightly preferential cytotoxicity against human cancer cells.
as §4

[6] = test system: PSN-1; test: MTT cytotoxicity, 2D culture, pancreatic carcinoma; type: cell-based; details: Homo sapiens, PSN1; PSN-1, 72 h, MTT test
Experimental: as §1, §2, §3
The growth inhibitory effect toward tumor cells was evaluated by means of MTT assay. Briefly, 3–8 × 10^3 cells/well, dependent upon the growth characteristics of the cell line, were seeded in 96-well microplates in growth medium (100 μL). After 24 h, the medium was removed and replaced with a fresh one containing the compound to be studied at the appropriate concentration. Triplicate cultures were established for each treatment. […] After overnight incubation, cell growth inhibition was detected by measuring the absorbance of each well at 570 nm using a Bio-Rad 680 microplate reader. Mean absorbance for each drug dose was expressed as a percentage of the control untreated well absorbance and plotted vs. drug concentration. […]

[7] = test system: MDA-MB-231; test: MTT cytotoxicity, 2D culture, breast carcinoma; type: cell-based, human; details: MDA-MB-231, 72 h, MTT test
Experimental: as §1, §2, §3, §4

[8] = test system: 2008; test: MTT cytotoxicity, 2D culture, ovarian carcinoma; type: cell-based, human; details: 2008, 72 h, MTT test
Experimental: as §1, §2, §3, §4

[9] = molecular target: T1, TrxR (Homo sapiens, UniProt Q16881); test: TrxR activity in treated U1285 cells; type: cell-based; details: 2 µM, 24 h
T1 construct: hampering TrxR activity when tested in U1285 cell cultures; endogenous in cells; host or cells: U1285 human small-cell lung carcinoma cells
T1 sequence (Q16881 151-649 limits assumed): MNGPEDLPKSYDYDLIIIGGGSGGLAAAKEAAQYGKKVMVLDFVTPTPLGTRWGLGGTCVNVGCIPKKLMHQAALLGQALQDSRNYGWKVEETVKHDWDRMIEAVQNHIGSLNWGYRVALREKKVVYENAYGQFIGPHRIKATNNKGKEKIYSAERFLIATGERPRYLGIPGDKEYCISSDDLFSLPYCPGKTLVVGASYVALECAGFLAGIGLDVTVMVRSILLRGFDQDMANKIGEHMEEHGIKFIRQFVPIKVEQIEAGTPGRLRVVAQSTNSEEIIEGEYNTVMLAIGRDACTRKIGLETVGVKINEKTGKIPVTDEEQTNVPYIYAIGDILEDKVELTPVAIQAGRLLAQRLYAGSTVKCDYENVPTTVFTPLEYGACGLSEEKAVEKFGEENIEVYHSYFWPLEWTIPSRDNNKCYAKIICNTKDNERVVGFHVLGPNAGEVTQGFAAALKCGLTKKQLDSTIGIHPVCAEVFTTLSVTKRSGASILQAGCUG
Experimental: On the other hand, Ag(I) compounds 4 and 5 were as effective or even better than auranofin in hampering TrxR activity when tested in U1285 cell cultures.
At the end of incubation time, cells were collected, washed with ice-cold PBS and centrifuged at […]. Each sample was then lysed with RIPA buffer modified as follows: 150 mM NaCl, 50 mM Tris–HCl, 1% Triton X-100, 1% SDS, 1% DOC, 1 mM NaF, 1 mM EDTA, and immediately before use, an anti-protease cocktail (Roche, Basel, Switzerland) containing PMSF was added. Samples were tested for TrxR activity as above described.
Figure 2 TrxR inhibition. (A) TrxR1 activity was assayed by measuring NADPH-dependent reduction of DTNB at 412 nm as described in the Experimental Section. (a) 50% inhibition concentration (IC50), Error bars indicate S.D. (B) U1285 cells were incubated for 24 h with the tested compounds (2 µM). Subsequently, cells were washed twice with PBS and lysed. TrxR activity was tested by measuring NADPH-dependent reduction of DTNB at 412 nm. Error bars indicate SD. * p < 0.05; ** p < 0.01.

[10] = test system: U1285 cancer cell spheroids; test: 3D spheroid cytotoxicity, acid phosphatase (APH) assay; type: cell-based, human; details: 72 h
Experimental: The in vitro antitumor activity of the newly developed Ag(I) derivatives was also assayed in 3D cell culture models of SCLC cells. Even if the 2D cell cultures are the most employed assays for in vitro screening due to the low cost, simplicity and reliability, two-dimensional methods are unable to reproduce the properties of in vivo solid tumors. In contrast, 3D cell cultures are much more efficient in closely mimicking the heterogeneity and complexity of the tumor mass and therefore are more predictive for in vivo results than conventional 2D cell cultures. On these bases, we tested the activity of the Ag(I) complexes on spheroids obtained from U1285 cells, which were proven to be highly sensitive to their in vitro antitumor activity. SCLC spheroids were treated with the investigated compounds for 72 h, and cell viability was assessed by means of the acid phosphatase (APH) assay.
Spheroids from U1285 cells (3 × 10^3 cells/well) were treated for 72 h with increasing concentrations of tested compounds. The growth inhibitory effect was evaluated by means of the APH assay. IC50 values were calculated from the dose–survival curves by the four-parameter logistic model (p < 0.05). S.D. = standard deviation.
Spheroid cultures were obtained by seeding 2.5 × 10^3 U1285 cancer cells/well in a round-bottom non-treated tissue culture 96-well plate (Greiner Bio-one, Kremsmünster, Austria) in phenol red free RPMI-1640 medium (Sigma Chemical Co., St. Louis, MO, USA) containing 10% fetal calf serum and supplemented with 20% methyl cellulose stock solution.
An APH modified assay was used for determining cell viability in 3D spheroids, as previously described. […] The inhibition of the cell growth induced by the tested complexes was detected by measuring the absorbance of each well at 405 nm, using a Bio-Rad 680 microplate reader. Mean absorbance for each drug dose was expressed as a percentage of the control untreated well absorbance (T/C) and plotted vs. drug concentration. […]

Row | Compound | IC50 ([1]; Homo sapiens) [µM] | IC50 ([2]; Homo sapiens) [µM] | IC50 ([3]; Homo sapiens) [µM] | IC50 ([4]; Homo sapiens, A-431) [µM] | IC50 [5] [µM] | IC50 [6] [µM] | IC50 ([7]; Homo sapiens) [µM] | IC50 ([8]; Homo sapiens) [µM] | decrease of TrxR enzyme activity [9] [%] | IC50 [1] [µM] | IC50 [2] [µM] | IC50 [3] [µM] | IC50 [4] [µM] | IC50 [7] [µM] | IC50 [8] [µM] | IC50 [10] [µM] | IC50 ([10]; Homo sapiens) [µM]
1 | c1ccc(P(c2ccccc2)c2ccccc2)cc1 [PPh3, triphenylphosphine, reference compound] | > 50 | > 50 | > 50 | 47.5 ± 1.1 | > 100 | > 50 | > 50 | > 50 | – | – | – | – | – | – | – | – | –
2 | C1N2CN3CN1CP(C2)C3 [PTA, 1,3,5-triaza-7-phosphaadamantane, reference compound] | > 100 | > 100 | > 100 | > 100 | > 100 | > 100 | > 100 | > 100 | – | – | – | – | – | – | – | – | –
3 | CC(=O)OC[C@H]1O[C@@H]([S-])[C@H](OC(C)=O)[C@@H](OC(C)=O)[C@@H]1OC(C)=O.CCP(CC)CC.[Au+] [auranofin, reference compound] | – | – | – | – | – | – | – | – | 62 | – | – | – | – | – | – | – | –
4 | N.N.[Cl][Pt][Cl] [cisplatin, reference compound] | – | – | – | – | – | – | – | – | – | 15.3 ± 2.6 | 30.5 ± 2.6 | 9.6 ± 1.2 | 2.1 ± 0.9 | 30.5 ± 2.6 | 2.2 ± 1 | 65.4 ± 1.4 | –
5 | COC(=O)C(n1cccn1)n1cccn1 [ligand 1, [HC(pz)2COOCH3]] | > 50 | > 50 | > 50 | > 50 | > 50 | > 50 | > 50 | > 50 | – | – | – | – | – | – | – | – | > 100
6 | COC(=O)C(n1nc(C)cc1C)n1nc(C)cc1C [ligand 2, [HC(pz^Me2)2COOCH3]] | > 50 | > 50 | > 50 | > 50 | > 50 | > 50 | > 50 | > 50 | – | – | – | – | – | – | – | – | > 100
